Assay results taken from US12527872B2, “PEGylated ICD inducer-IDO inhibitor nanoconjugate, and preparation method and use thereof” (SHANDONG UNIVERSITY, priority 2019, dated 2026).

Assays:
4T1 cells [1] = assay: In vivo inhibition of breast tumor growth (4T1 breast cancer model); settings: BALB/c mice injected with 4T1 cells, treated every three days; compared with saline control; FIG. 8
Experimental: To evaluate the efficacy of diMT-OXA(IV)-PEG 2000 nanoconjugate in inhibiting tumor growth in vivo, a model of animal with breast cancer was established. 4T1 cells were injected intravenously in BALB/c mice. 4T1 cells spontaneously generate tumors in BALB/c mice, and the characteristics of these tumors are very similar to breast cancer in humans. The BALB/c mice injected with 4T1 cells were treated every three days with free OXA, free 1-MT, free 1-MT plus OXA, and diMT-OXA(IV)-PEG 2000 nanoconjugate, and were treated with saline as control. After the course of treatment, tumor masses were collected from the experimental mice to measure tumor volume to assess general anti-tumor effects (see […]). It can be learned from FIG. 8 that the tumor volume is reduced in mice treated with free OXA, free 1-MT, and free 1-MT plus OXA, and the tumor volume is reduced in mice treated with diMT-OXA(IV)-PEG 2000 nanoconjugate to more than about 50% of that in mice treated with saline as control.

4T1 cells [2] = assay: In vitro anti-tumor viability test (CCK-8); type: cell-based; settings: different concentrations, 48 h, CCK-8, absorbance at 450 nm; FIG. 10
Experimental: 4T1 cells were incubated in a 96-well plate (8000 cells/well) with a volume of 100 μL per well. After the incubation, the 96-well plate was placed in an incubator to culture at 37° C. under 5% CO2 overnight. 100 μL of free OXA and diMT-OXA(IV)-PEG 2000 nanoconjugate (in different concentrations) were added. After culture in the incubator at 37° C. under 5% CO2 for 48 h, 10 μL of CCK-8 solution was added into each well and then cultured in the incubator at 37° C. under 5% CO2 for 2 h. The absorbance was measured at 450 nm by an ELISA reader, and the cell viability was calculated.

Structure (SMILES)	tumor volume (4T1 cells [1])	inhibitory effect on the proliferation of 4T1 cells (cell viability) (4T1 cells [2])
O=C1[O][Pt]2([NH][C@@H]3CCCC[C@H]3[NH]2)[O]C1=O [free OXA, oxaliplatin]	reduced	good inhibitory effect
Cn1cc(C[C@@H](N)C(=O)O)c2ccccc21 [free 1-MT, 1-methyl-D-tryptophan]	reduced	–
